Results as given in patent publication US10588935B2, “FC receptor (FcRn) binding peptides and uses thereof” (THE BRIGHAM AND WOMEN'S HOSPITAL, INC., priority 2013, dated 2020).
Where two headings read alike, the source gives them in different places. Bridge positions count the residues as written; N and C are the ends. Peptide text beside a SMILES is read from it.

Molecular target: T1, soluble human FcRn (Homo sapiens, UniProt P55899)
T1 construct: Soluble human FcRn was expressed and purified by Biogen-Idec as previously described (29)
T1 sequence (P55899 24-297 limits assumed): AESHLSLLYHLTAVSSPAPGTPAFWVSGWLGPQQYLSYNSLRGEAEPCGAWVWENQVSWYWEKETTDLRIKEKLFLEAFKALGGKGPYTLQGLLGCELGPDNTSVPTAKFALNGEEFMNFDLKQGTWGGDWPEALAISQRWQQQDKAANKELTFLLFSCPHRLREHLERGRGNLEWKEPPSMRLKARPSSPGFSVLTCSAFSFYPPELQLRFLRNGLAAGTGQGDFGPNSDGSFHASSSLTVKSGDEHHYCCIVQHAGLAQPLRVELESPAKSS
T1 sequence (P61769 21-119 partner): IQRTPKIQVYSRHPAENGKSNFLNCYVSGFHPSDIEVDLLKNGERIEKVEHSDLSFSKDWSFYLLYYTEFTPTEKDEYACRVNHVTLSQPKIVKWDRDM
Assay: SPR (Biacore) affinity of peptides for immobilized soluble human FcRn
Assay type: binding
Protocol: SPR analyses were conducted using a Biacore 3000 or T100 instrument. Research-grade CM5 sensor chips and all coupling reagents for immobilization were purchased from Biacore. All proteins were cross-linked to the dextran surface of a CM5 sensor chip by standard amine coupling chemistry as recommended by Biacore. […] Binding experiments were performed at pH 6.0 or 7.4 using 50 mM phosphate, 100 mM sodium chloride and 0.01% surfactant P20. […] Bound albumin protein was then allowed to dissociate from the chip for 5 minutes with running buffer. Any remaining albumin was removed from the chip with a 60 second injection (2 cycles) of pH 8.0 Tris-HCl regeneration buffer (1 M Tris pH 8.0) at 25 μL/min flow rate. The binding responses recorded near the end of the association phase were plotted as a function of concentration. Equilibrium dissociation constants (KD), were derived from sensorgrams using the 1:1 binding model of BIAevaluation software 4.1.

[1] = Table 1, pH 6, shFcRn immobilized on the sensor chip, steady state fit, read-out: Kd, pH 6** Biacore
[2] = Table 2, pH 6, immobilized shFcRn, data fit steady state or 2 site, read-out: Kd, pH 6** Biacore
[3] = Table 2, pH 7.4, data only 100 uM, therefore Kd may be higher, read-out: Kd, pH 7.4 Biacore

CC(=O)N[C@@H](CCCNC(=N)N)C(=O)N[C@@H](Cc1ccc(O)cc1)C(=O)N[C@@H](Cc1ccccc1)C(=O)N[C@H]1CSSC[C@@H](C(=O)N[C@@H](CCC(=O)O)C(=O)N[C@@H](CCC(=O)O)C(=O)N[C@H](C(N)=O)C(C)C)NC(=O)[C@H](C)NC(=O)CNC(=O)[C@H](Cc2c[nH]cn2)NC(=O)[C@H](CCCCN)NC(=O)[C@H](Cc2c[nH]c3ccccc23)NC(=O)[C@H](CCCCN)NC(=O)[C@H]([C@@H](C)O)NC1=O [SYN1551] (Ac-RYFCTKWKHGACEEV-NH2; disulfide 4-12) was tested, and the Kd [1] was over 200 µM.
For CC(=O)N[C@@H](CCCNC(=N)N)C(=O)N[C@@H](Cc1ccc(O)cc1)C(=O)N[C@@H](Cc1ccccc1)C(=O)N[C@H]1CSSC(C)(C)[C@@H](C(=O)N[C@@H](CCC(=O)O)C(=O)N[C@@H](CCC(=O)O)C(=O)N[C@H](C(N)=O)C(C)C)NC(=O)[C@H](Cc2c[nH]c3ccccc23)NC(=O)CNC(=O)[C@H](Cc2c[nH]cn2)NC(=O)[C@H](CCCCN)NC(=O)[C@H](Cc2c[nH]c3ccccc23)NC(=O)[C@H](CCCCN)NC(=O)[C@H]([C@@H](C)O)NC1=O [SYN1556], the Kd [1] was over 100 µM.
CSCC[C@H](NC(=O)[C@H](C)NC(C)=O)C(=O)N[C@H](C(=O)N[C@H]1CSSC[C@@H](C(=O)N[C@@H](CCC(=O)O)C(=O)N[C@@H](Cc2ccc(O)cc2)C(=O)N[C@H](C(N)=O)C(C)C)NC(=O)[C@H](CO)NC(=O)[C@H](Cc2ccccc2)NC(=O)CNC(=O)[C@H](CC(=O)O)NC(=O)[C@H](CC(=O)O)NC(=O)[C@H](Cc2c[nH]c3ccccc23)NC(=O)[C@H](CCCCN)NC1=O)[C@@H](C)O [SYN1144] (Ac-AMTCKWDDGFSCEYV-NH2; disulfide 4-12 (inferred)) was tested, and the “Kd Ratio 7.4/6.0” value (Table 2) was 23.3.
In the case of CC(=O)N[C@@H](C)C(=O)NCC(=O)N[C@@H](CCCNC(=N)N)C(=O)N[C@@H](Cc1ccc(O)cc1)C(=O)N[C@@H](Cc1ccccc1)C(=O)N[C@H]1CSSC[C@@H](C(=O)N[C@@H](CCC(=O)O)C(=O)N[C@@H](CCC(=O)O)C(=O)N[C@H](C(=O)NCC(=O)N[C@H](C(=O)NCC(=O)NCC(N)=O)[C@@H](C)O)C(C)C)NC(=O)[C@H](Cc2c[nH]c3ccccc23)NC(=O)CNC(=O)[C@H](Cc2c[nH]cn2)NC(=O)[C@H](CCCCN)NC(=O)[C@H](Cc2c[nH]c3ccccc23)NC(=O)[C@H](CCCCN)NC(=O)[C@H]([C@@H](C)O)NC1=O [SYN1708], the Kd [1] is reported as 0.57 µM.
With CSCC[C@H](NC(=O)[C@H](Cc1ccc(O)cc1)NC(C)=O)C(=O)N[C@@H](Cc1c[nH]cn1)C(=O)N[C@H]1CSSC[C@@H](C(=O)N[C@@H](CC(=O)O)C(=O)N[C@@H](CCC(N)=O)C(=O)NCC(N)=O)NC(=O)[C@H](CCCCN)NC(=O)[C@H](Cc2ccccc2)NC(=O)[C@H](CCC(=O)O)NC(=O)[C@H](CCC(=O)O)NC(=O)[C@H](CC(=O)O)NC(=O)[C@H](Cc2c[nH]c3ccccc23)NC(=O)[C@H](Cc2ccccc2)NC1=O [SYN1256] (Ac-YMHCFWDEEFKCDQG-NH2; disulfide 4-12 (inferred)) the “Kd Ratio 7.4/6.0” value (Table 2) was 69.
CSCC[C@H](NC(=O)[C@H](Cc1ccc(O)cc1)NC(C)=O)C(=O)N[C@H](C(=O)N[C@H]1CSSC[C@@H](C(=O)N[C@@H](CCC(=O)O)C(=O)N[C@@H](Cc2ccc(O)cc2)C(=O)N[C@H](C(N)=O)C(C)C)NC(=O)[C@H](CO)NC(=O)[C@H](Cc2ccccc2)NC(=O)CNC(=O)[C@H](CC(=O)O)NC(=O)[C@H](CC(=O)O)NC(=O)[C@H](Cc2c[nH]c3ccccc23)NC(=O)[C@H](C)NC1=O)[C@@H](C)O [SYN1147] (Ac-YMTCAWDDGFSCEYV-NH2; disulfide 4-12 (inferred)) was tested, and the “Kd Ratio 7.4/6.0” value (Table 2) was 56.
With CSCC[C@H](NC(=O)[C@H](Cc1ccc(O)cc1)NC(C)=O)C(=O)N[C@H](C(=O)N[C@H]1CSSC[C@@H](C(=O)N[C@@H](CCC(=O)O)C(=O)N[C@@H](Cc2ccc(O)cc2)C(=O)N[C@H](C(N)=O)C(C)C)NC(=O)[C@H](CO)NC(=O)[C@H](Cc2ccccc2)NC(=O)[C@H](C)NC(=O)[C@H](CC(=O)O)NC(=O)[C@H](CC(=O)O)NC(=O)[C@H](Cc2c[nH]c3ccccc23)NC(=O)[C@H](CCCCN)NC1=O)[C@@H](C)O [SYN1151] (Ac-YMTCKWDDAFSCEYV-NH2; disulfide 4-12 (inferred)) the “Kd Ratio 7.4/6.0” value (Table 2) was 25 and the Kd [2] was 1.5 ± 0.22 µM.
In the case of CSCC[C@H](NC(=O)[C@H](Cc1ccc(O)cc1)NC(C)=O)C(=O)N[C@H](C(=O)N[C@H]1CSSC[C@@H](C(=O)N[C@@H](CCC(=O)O)C(=O)N[C@@H](Cc2ccc(O)cc2)C(=O)N[C@@H](C)C(N)=O)NC(=O)[C@H](CO)NC(=O)[C@H](Cc2ccccc2)NC(=O)CNC(=O)[C@H](CC(=O)O)NC(=O)[C@H](CC(=O)O)NC(=O)[C@H](Cc2c[nH]c3ccccc23)NC(=O)[C@H](CCCCN)NC1=O)[C@@H](C)O [SYN1156] (Ac-YMTCKWDDGFSCEYA-NH2; disulfide 4-12 (inferred)), the “Kd Ratio 7.4/6.0” value (Table 2) is reported as 38 and the Kd [3] is reported as 22 µM.
CSCC[C@H](NC(=O)[C@@H](NC(C)=O)C(C)C)C(=O)N[C@@H](CCCCN)C(=O)N[C@H]1CSSC[C@@H](C(=O)N[C@@H](CCCNC(=N)N)C(=O)N[C@@H](C)C(=O)N[C@@H](Cc2ccccc2)C(N)=O)NC(=O)[C@H](CC(C)C)NC(=O)[C@H](Cc2ccccc2)NC(=O)[C@H](CCC(=O)O)NC(=O)[C@H](CCC(=O)O)NC(=O)[C@H](CC(=O)O)NC(=O)[C@H](Cc2c[nH]c3ccccc23)NC(=O)[C@H](Cc2c[nH]c3ccccc23)NC1=O [SYN1536] (Ac-VMKCWWDEEFLCRAF-NH2; disulfide 4-12 (inferred)) was tested, and the “Kd Ratio 7.4/6.0” value (Table 2) was 61, the Kd [2] was 0.031 µM and the Kd [3] was 1.1 µM.
For CC(=O)N[C@@H](CCCNC(=N)N)C(=O)N[C@@H](Cc1ccc(O)cc1)C(=O)N[C@@H](Cc1ccccc1)C(=O)N[C@@H]1C(=O)N[C@@H]([C@@H](C)O)C(=O)N[C@@H](CCCCN)C(=O)N[C@@H](Cc2c[nH]c3ccccc23)C(=O)N[C@@H](CCCCN)C(=O)N[C@@H](Cc2c[nH]cn2)C(=O)NCC(=O)N[C@@H](Cc2c[nH]c3ccccc23)C(=O)N[C@H](C(=O)N[C@@H](CCC(=O)O)C(=O)N[C@@H](CCC(=O)O)C(=O)N[C@H](C(N)=O)C(C)C)CSSC1(C)C [SYN1555], the Kd [1] was over 100 µM.
In the case of CSCC[C@H](NC(=O)[C@@H](NC(C)=O)C(C)C)C(=O)N[C@@H](Cc1c[nH]cn1)C(=O)N[C@H]1CSSC[C@@H](C(=O)N[C@@H](CC(=O)O)C(=O)N[C@@H](Cc2ccc(O)cc2)C(=O)NCC(N)=O)NC(=O)[C@H](CCCCN)NC(=O)[C@H](Cc2ccccc2)NC(=O)[C@H](CCC(=O)O)NC(=O)[C@H](CCC(=O)O)NC(=O)[C@H](CC(=O)O)NC(=O)[C@H](Cc2c[nH]c3ccccc23)NC(=O)[C@H](Cc2ccccc2)NC1=O [SYN1259] (Ac-VMHCFWDEEFKCDYG-NH2; disulfide 4-12 (inferred)), the “Kd Ratio 7.4/6.0” value (Table 2) is reported as 132 and the Kd [3] is reported as 12 µM.
CSCC[C@@H]1NC(=O)[C@H](CCC(=O)O)NC(=O)[C@H](CCC(=O)O)NC(=O)[C@H](CC(=O)O)NC(=O)[C@H](Cc2c[nH]c3ccccc23)NC(=O)[C@H](Cc2c[nH]c3ccccc23)NC(=O)[C@@H](NC(=O)[C@H](CCCCN)NC(=O)[C@H](CCSC)NC(=O)[C@@H](NC(C)=O)C(C)C)CSSC[C@@H](C(=O)N[C@@H](CCCNC(=N)N)C(=O)N[C@@H](C)C(=O)N[C@H](C(N)=O)C(C)C)NC(=O)[C@H](CC(C)C)NC1=O [SYN1540 A] (Ac-VMKCWWDEEMLCRAV-NH2; disulfide 4-12) was tested, and the “Kd Ratio 7.4/6.0” value (Table 2) was 80.
Work on CC(=O)N[C@@H](CCCNC(=N)N)C(=O)N[C@@H](Cc1ccc(O)cc1)C(=O)N[C@@H](Cc1ccccc1)C(=O)N[C@H]1CSSC[C@@H](C(=O)N[C@@H](CCC(=O)O)C(=O)N[C@@H](CCC(=O)O)C(=O)N[C@H](C(N)=O)C(C)C)NC(=O)[C@H](Cc2c[nH]c3ccccc23)NC(=O)CNC(=O)[C@H](Cc2c[nH]cn2)NC(=O)[C@H](CCCCN)NC(=O)[C@H](Cc2c[nH]c3ccccc23)NC(=O)[C@H](CCCCN)NC(=O)[C@H](C)NC1=O [SYN1545] (Ac-RYFCAKWKHGWCEEV-NH2; disulfide 4-12 (inferred)) yielded a Kd [1] of 9.3 µM.
In the case of CSCC[C@@H]1NC(=O)[C@H](CCC(=O)O)NC(=O)[C@H](CCC(=O)O)NC(=O)[C@H](CC(=O)O)NC(=O)[C@H](Cc2c[nH]c3ccccc23)NC(=O)[C@H](Cc2c[nH]c3ccccc23)NC(=O)[C@@H](NC(=O)[C@H](CCCCN)NC(=O)[C@H](CCSC)NC(=O)[C@@H](NC(C)=O)C(C)C)CSSC[C@@H](C(=O)N[C@@H](CCCNC(=N)N)C(=O)N[C@@H](C)C(=O)N[C@@H](Cc2ccccc2)C(N)=O)NC(=O)[C@H](CC(C)C)NC1=O [SYN1532] (Ac-VMKCWWDEEMLCRAF-NH2; disulfide 4-12 (inferred)), the “Kd Ratio 7.4/6.0” value (Table 2) is reported as 112 and the Kd [3] is reported as 17.3 µM.
CSCC[C@@H]1NC(=O)[C@H](CCC(=O)O)NC(=O)[C@H](CCC(=O)O)NC(=O)[C@H](CC(=O)O)NC(=O)[C@H](Cc2c[nH]c3ccccc23)NC(=O)[C@H](Cc2c[nH]c3ccccc23)NC(=O)[C@@H](NC(=O)[C@H](CCCCN)NC(=O)[C@H](CCSC)NC(=O)[C@@H](NC(C)=O)C(C)C)CSSC[C@@H](C(=O)N[C@@H](CCC(=O)O)C(=O)N[C@@H](C)C(=O)N[C@@H](Cc2ccccc2)C(N)=O)NC(=O)[C@H](CC(C)C)NC1=O [SYN1538] (Ac-VMKCWWDEEMLCEAF-NH2; disulfide 4-12 (inferred)) was tested, and the “Kd Ratio 7.4/6.0” value (Table 2) was 71.
In the case of CSCC[C@H](NC(=O)[C@H](Cc1ccc(O)cc1)NC(C)=O)C(=O)N[C@@H](C)C(=O)N[C@H]1CSSC[C@@H](C(=O)N[C@@H](CCC(=O)O)C(=O)N[C@@H](Cc2ccc(O)cc2)C(=O)N[C@H](C(N)=O)C(C)C)NC(=O)[C@H](CO)NC(=O)[C@H](Cc2ccccc2)NC(=O)CNC(=O)[C@H](CC(=O)O)NC(=O)[C@H](CC(=O)O)NC(=O)[C@H](Cc2c[nH]c3ccccc23)NC(=O)[C@H](CCCCN)NC1=O [SYN1146] (Ac-YMACKWDDGFSCEYV-NH2; disulfide 4-12 (inferred)), the “Kd Ratio 7.4/6.0” value (Table 2) is reported as 34.4 and the Kd [3] is reported as 8.6 µM.
